Like-named read-outs stand apart in the source and are kept apart here.
Columns and labels:
[1] = target: T1, type II dehydroquinase from Mycobacterium tuberculosis (Mycobacterium tuberculosis, UniProt P9WPX7); experiment: M. tuberculosis DHQase enzyme inhibition in vitro; format: biochemical; conditions: Ki calculated from measured IC50, read-out: Ki (Mtb; μM)
Description: (§1) The next step was to purchase the compounds highlighted by these protocols to test them in vitro against M. tuberculosis DHQase and S. coelicolor DHQase. With the modest budget assigned to this proof of concept (£5000), we could purchase 148 compounds (full details on this process can be found in electronic supplementary material, Materials and methods). Tables 1 and 2 show the performance of each virtual screening protocol against each target (all IC50 measurements are included in the electronic supplementary material). […]. […].
(§2) In order to assess the overall hit rate and potency of these inhibitors, we calculated their inhibition constant (Ki) as explained in electronic supplementary material, Materials and methods (see table 3 for a summary). This is necessary to have a more accurate comparison with hit rates in the literature and with the potency of previously known inhibitors. […]. a total of 40 inhibitors) being noticeably higher than that for M. tuberculosis DHQase (23.6%; 35 inhibitors). […]. This difference might be due to the fact that our protocols are primarily exploiting crystal structures for S. coelicolor DHQase. […].

[2] = target: T2, type II dehydroquinase from Streptomyces coelicolor (Streptomyces coelicolor, UniProt P15474); experiment: S. coelicolor DHQase enzyme inhibition in vitro; format: biochemical
T2 sequence (P15474 whole entry): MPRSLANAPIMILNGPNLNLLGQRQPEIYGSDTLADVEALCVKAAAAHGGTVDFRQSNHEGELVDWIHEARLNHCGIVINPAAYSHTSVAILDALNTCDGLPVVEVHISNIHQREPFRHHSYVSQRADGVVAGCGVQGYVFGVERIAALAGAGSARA
Description: as §1, §2

[3] = target: T2, type II dehydroquinase from Streptomyces coelicolor; conditions: cited from earlier work
[4] = target: T1, type II dehydroquinase from Mycobacterium tuberculosis; conditions: search template RP4, known optimized inhibitor; reference not given, probably ref 33; read-out: Ki (Mtb; μM); cited from earlier work
H. pylori DHQase = target: H. pylori DHQase; parameters: method as in PMID 16480265; conditions: HTS hit; read-out: Ki against H. pylori DHQase; cited from earlier work

T1 sequence (P9WPX7 whole entry): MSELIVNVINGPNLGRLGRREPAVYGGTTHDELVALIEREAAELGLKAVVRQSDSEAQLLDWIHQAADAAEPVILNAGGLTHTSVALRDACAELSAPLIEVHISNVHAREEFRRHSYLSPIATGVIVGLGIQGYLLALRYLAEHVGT

Row | Compound | Ki [1] [µM] | Ki [2] [µM] | also measured
1 | CC[C@H](C)NC(=O)c1ccccc1NC(=O)Cc1ccccc1 [ZINC10025084] | 167 | 148 | 
2 | O=C(O)[C@H](Cc1ccccc1)N1C(=O)/C(=C/c2cccc3ccccc23)SC1=S [ZINC00978022] |  | 4 | 
3 | COc1ccc(CC(=O)Nc2cc(C(F)(F)F)ccc2N(C)C)cc1F [ZINC18086350] | 166 |  | inhibition at 224 µM ([2]; read-out: inhibition of S. coelicolor DHQase): 45%
4 | O=C(Cn1nc2ccccn2c1=O)N(Cc1cccs1)Cc1cccs1 [ZINC24469052] |  | 21 | 
5 | O=C(O)[C@]1(O)C[C@H](CCCOc2ccccc2)[C@@H](O)[C@H](O)C1 [CA2] |  |  | Ki ([3]; read-out: measured Ki (2BT4 ligand)): 33 µM
6 | CCOC(=O)C1=C(CSc2nc3ccccc3[nH]2)NC(=O)N[C@H]1C [ZINC06024496] | 159 | 174 | 
7 | CC[C@H](C)NC(=O)c1ccccc1NC(=O)Cc1c(F)cccc1Cl [ZINC15608616] | 150 | 149 | 
8 | O=C(O)[C@]1(O)C=C(c2cccc(Sc3ccccc3)c2)[C@@H](O)[C@H](O)C1 [RP4] |  |  | Ki ([3]; read-out: Ki (Sc; μM), search template RP4, known optimized inhibitor): 0.07 µM; Ki [4]: 0.38 µM
9 | CC(C)N(C(=O)COC(=O)c1ccc(N)c([N+](=O)[O-])c1)C(C)C [ZINC05657290] | 192 | 201 | 
10 | O=c1c2ccccc2oc2ccc(S(=O)(=O)N=c3[nH]nn[nH]3)cc12 [GAJ] |  |  | Ki (H. pylori DHQase): 20 µM

From publication PMC3481598, “Hierarchical virtual screening for the discovery of new molecular scaffolds in antibacterial hit identification” (Journal of the Royal Society Interface, 2012)
